In patent publication US20250368699A1, “ARTHROPOD CHEMOSENSORY RECEPTORS AND USES THEREOF” (Firmenich Incorporated, priority 2022, published 2025):
pEC50: −log10 of the molar value. Read-outs that look alike come from different tables or passages of the source.

Target: AaORCO+AaOR8 receptors (Aedes aegypti, UniProt A0A1S4FVR6)
Assay: Automatic planar patch-clamp electrophysiology in U2OS cells co-transduced with AaORCO and AaOR8
Type: cell-based
Experimental: In this example, U2OS cells were co-transduced with AaORCO and AaOR8 channel subunits overnight and stimulated with increasing concentrations of 1-octen-3-ol ligand in the absence and presence of 10 μM VUAA1.
Cell culture and transduction. U2OS and HEK293 cells were grown on T150 flasks with Dulbecco's modified eagle medium supplemented with 10% fetal bovine serum and 1% Penicillin/Streptomycin in a 37° C. incubator under a 5% CO2 atmosphere. For transductions, cell cultures were pooled at 1.5×10^6 cell/ml, centrifuged at 1000 xg for 5 min, and resuspended in fresh medium. Resuspended cultures were inoculated at a multiplicity of 1-20 pfu/cell with baculovirus encoding AaORCO or AaORCO with AaOR8, AaOR2 or AaOR11 and AgORCO with AgOR8 or AgOR2. A further untransduced culture was used as a control. Cultures were maintained in an incubator at 37° C. and used for electrophysiology or FLIPR measurements 1-4 days after infection.
Planar Patch Clamp Electrophysiology Assay. […] On the day of the assay, the cells were lifted, washed once in PBS and loaded on a Nanion Synchropatch384 instrument and currents were recorded using voltage clamp in standard whole-cell configuration at-90 mV on an 8-hole version chip (NPC-384T).

AaORCO+AaOR8 receptors, sequence (Q178U6 whole entry): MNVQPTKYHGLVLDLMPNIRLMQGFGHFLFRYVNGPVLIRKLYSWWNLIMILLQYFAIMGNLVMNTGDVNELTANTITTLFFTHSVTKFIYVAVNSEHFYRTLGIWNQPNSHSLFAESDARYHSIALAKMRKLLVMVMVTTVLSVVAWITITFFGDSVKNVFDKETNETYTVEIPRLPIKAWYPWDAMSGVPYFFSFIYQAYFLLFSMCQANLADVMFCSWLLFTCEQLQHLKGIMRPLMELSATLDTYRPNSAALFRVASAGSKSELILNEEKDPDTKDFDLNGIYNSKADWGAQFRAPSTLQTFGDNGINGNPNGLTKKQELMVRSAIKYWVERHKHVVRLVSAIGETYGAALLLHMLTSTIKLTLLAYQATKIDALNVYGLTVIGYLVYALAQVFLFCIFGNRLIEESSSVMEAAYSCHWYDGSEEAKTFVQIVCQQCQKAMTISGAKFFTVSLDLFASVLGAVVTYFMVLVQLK
AaORCO+AaOR8 receptors, sequence (A0A1S4FVR6 entry or part of it): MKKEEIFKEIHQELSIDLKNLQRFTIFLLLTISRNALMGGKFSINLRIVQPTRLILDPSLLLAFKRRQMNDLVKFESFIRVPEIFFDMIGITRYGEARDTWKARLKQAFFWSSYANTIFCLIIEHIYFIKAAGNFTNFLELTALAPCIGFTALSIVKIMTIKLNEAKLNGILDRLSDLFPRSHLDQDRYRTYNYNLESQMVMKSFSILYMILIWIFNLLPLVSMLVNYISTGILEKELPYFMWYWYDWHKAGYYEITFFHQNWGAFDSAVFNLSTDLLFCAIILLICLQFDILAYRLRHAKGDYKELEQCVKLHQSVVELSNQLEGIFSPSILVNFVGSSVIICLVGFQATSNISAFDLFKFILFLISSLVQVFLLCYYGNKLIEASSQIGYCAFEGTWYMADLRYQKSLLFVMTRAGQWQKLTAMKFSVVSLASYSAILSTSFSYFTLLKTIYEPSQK

`C=CC(O)CCCCC` (centres unmarked) [1-octen-3-ol] showed a pEC50 (absence of VUAA1, read-out: EC50, dose-dependent activation of AaORCO+AaOR8 channel currents) of 6.27 and a pEC50 (presence of 10 μM VUAA1, read-out: EC50, activation of AaORCO+AaOR8 channel currents in the presence of VUAA1 (left-shift)) of 7.00.
